Assay results reported in the NIST ThermoML archive (doi:10.1021/je500088z).
± gives the expanded uncertainty stated by the source.

Assay: excess molar enthalpy (molar enthalpy of mixing); xn = mol fraction of the nth substance listed
Settings: 308.15 K, 101 kPa, Liquid, Calvet calorimetry

| SMILES | excess molar enthalpy (x2 = 0.113) | excess molar enthalpy (x2 = 0.2) | excess molar enthalpy (x2 = 0.297) | excess molar enthalpy (x2 = 0.401) | excess molar enthalpy (x2 = 0.515) | excess molar enthalpy (x2 = 0.6) | excess molar enthalpy (x2 = 0.703) | excess molar enthalpy (x2 = 0.825) | excess molar enthalpy (x2 = 0.9) | excess molar enthalpy (x2 = 0.126) | excess molar enthalpy (x2 = 0.33) | excess molar enthalpy (x2 = 0.435) | excess molar enthalpy (x2 = 0.499) | excess molar enthalpy (x2 = 0.601) | excess molar enthalpy (x2 = 0.701) | excess molar enthalpy (x2 = 0.802) | excess molar enthalpy (x2 = 0.901) |
| --- | --- | --- | --- | --- | --- | --- | --- | --- | --- | --- | --- | --- | --- | --- | --- | --- | --- |
| C1CCNCC1 [piperidine] + C1COCCO1 | 0.0853 ± 0.00263 kcal/mol | 0.131 ± 0.00406 kcal/mol | 0.167 ± 0.00526 kcal/mol | 0.188 ± 0.00574 kcal/mol | 0.195 ± 0.00598 kcal/mol | 0.186 ± 0.00574 kcal/mol | 0.159 ± 0.00502 kcal/mol | 0.108 ± 0.00335 kcal/mol | 0.0655 ± 0.00215 kcal/mol |  |  |  |  |  |  |  |  |
| C1CCNCC1 [piperidine] + C1COCCN1 |  | 0.0375 ± 0.0012 kcal/mol |  |  |  |  |  |  |  | 0.0251 ± 0.000956 kcal/mol | 0.0531 ± 0.00167 kcal/mol | 0.0605 ± 0.00191 kcal/mol | 0.0631 ± 0.00191 kcal/mol | 0.0626 ± 0.00191 kcal/mol | 0.0564 ± 0.00167 kcal/mol | 0.0447 ± 0.00143 kcal/mol | 0.0261 ± 0.000956 kcal/mol |
